Assay results: ChEMBL document CHEMBL4616595, “Targeted suppression of metastasis regulatory transcription factor SOX2 in various cancer cell lines using a sequence-specific designer pyrrole-imidazole polyamide” (Bioorg Med Chem, 2020)

System: SW-620
Assay: Antiinvasive activity in human SW620 cells assessed as reduction in cell invasion at 2 uM incubated for 72 hrs by crystal violet staining based assay relative to untreated control
Format: functional

Compound: C=C1[C@@H](C)[C@H]2[C@H](Cc3ccccc3)NC(=O)[C@]23[C@H](OC(C)=O)/C=C/[C@@](C)(O)C(=O)[C@@H](C)C/C=C/[C@H]3[C@@H]1O [CYTOCHALASIN D]
- fold change (FC): 4
